The values below come from patent US20200399264A1, “4-SUBSTITUTED-2-THIAZOLE AMIDES AS ANTIVIRAL AGENTS” (Southern Research Institute, priority 2019, published 2020).

By EC90 is commonly meant the point of the concentration-response curve where the effect stands at 90%. Read a low EC90 as an effect from little substance. The CC50 is the concentration that lowers cell viability or growth by half. A higher CC50 goes with better tolerance by the cells.

For series [1], the system named is CHIKV. In words: antiviral activity against CHIKV (VTR and EC90). It counts as cell-based. To be noted: Chikungunya virus; for log reduction at 10 µM: read-out: VTR @ 10 μM (logs). The text has this: As used herein, “EC90,” is intended to refer to the concentration of a substance (e.g., a compound or a drug) that is required for 90% agonism of a biological process, or component of a process, including a protein, subunit, organelle, ribonucleoprotein, etc. In one aspect, an EC90 can refer to the concentration of a substance that is required for 90% agonism in vivo, as further defined elsewhere herein. In a further aspect, […].

A short description of series [2]: cell cytotoxicity in a cell viability assay (CC50). In kind it is cell-based. Conditions: concentration required for 50% cell survival. The text has this: As used herein, “CC50,” is intended to refer to the cell cytotoxicity to the concentration of a substance (e.g., a compound or a drug) that is required for 50% cell survival in a cell viability assay in vitro.

As to `CSc1ncccc1C(=O)Nc1nc(-c2cccc(Nc3ccc(C#N)cc3)c2)cs1` [Compound 37, N-(4-(3-((4-Cyanophenyl)amino)phenyl)thiazol-2-yl)-2-(methylthio)nicotinamide], in series [1], the EC90 came out at 0.45 µM and the log reduction at 10 µM stood at 8.68. The compound further returned a CC50 in series [2] of over 40 µM.

Consider `CSc1ncccc1C(=O)Nc1nc(-c2cccc(Nc3cccc(C(F)(F)F)c3)c2)cs1` [Compound 40, 2-(Methylthio)-N-(4-(3-((3-(trifluoromethyl)phenyl)amino)phenyl)thiazol-2-yl)nicotinamide], for which, in series [1], the 90% effect level (EC90) was put at 3.1 µM and the log reduction at 10 µM stood at 5.36. In addition, the CC50 in series [2] is over 40 µM.

In the case of `COC(=O)c1cc(-c2ccc(C#N)cc2)cc(-c2csc(NC(=O)c3cccnc3SC)n2)c1` [Compound 20, Methyl 4′-cyano-5-(2-(2-(methylthio)nicotinamido)thiazol-4-yl)-[1,1′-biphenyl]-3-carboxylate], the log reduction at 10 µM in series [1] stood at 3.23. Besides, half-maximal cytotoxicity in series [2] (CC50) was put at 17.6 µM.

As for `CSc1ncccc1C(=O)Nc1nc(-c2cccc(-c3ccccc3)c2)cs1` [Compound 1, N-(4-([1,1′-Biphenyl]-3-yl)thiazol-2-yl)-2-(methylthio)nicotinamide], in series [1], the 90% effect concentration (EC90) came out at 0.38 µM and the log reduction at 10 µM is 7.82. The same compound returned a CC50 in series [2] of over 40 µM.

`N#Cc1ccc(-c2cccc(-c3csc(NC(=O)c4cccnc4SC(F)F)n3)c2)cc1` [Compound 6, N-(4-(4′-Cyano-[1,1′-biphenyl]-3-yl)thiazol-2-yl)-2-((difluoromethyl)thio)nicotinamide]: the log reduction at 10 µM in series [1] came out at 7.6. The CC50 in series [2] is over 30 µM.

Take `CSc1ncccc1C(=O)Nc1nc(-c2cccc(-c3ccc(F)cn3)c2)cs1` [Compound 15, N-(4-(3-(5-Fluoropyridin-2-yl)phenyl)thiazol-2-yl)-2-(methylthio)nicotinamide]: in series [1], the EC90 was found to be 0.33 µM and the log reduction at 10 µM was 5.64. Also, in series [2], the CC50 was over 40 µM.

On to `CSc1ncccc1C(=O)Nc1nc(-c2cccc(Nc3ccc(C)c(C#N)c3)c2)cs1` [Compound 48, N-(4-(3-((3-cyano-4-methylphenyl)amino)phenyl)thiazol-2-yl)-2-(methylthio)nicotinamide], for which, in series [1], the EC90 stood at 0.89 µM and the log reduction at 10 µM is 4.52. In series [2], this compound had a CC50 of over 40 µM.

Regarding `CSc1ncccc1C(=O)Nc1nc(-c2cncc(-c3ccc(C#N)cc3)c2)cs1` [Compound 12, N-(4-(5-(4-Cyanophenyl)pyridin-3-yl)thiazol-2-yl)-2-(methylthio)nicotinamide], the log reduction at 10 µM in series [1] was under 1. In series [2], this compound registered a 50% cytotoxic concentration (CC50) of over 40 µM.

`CSc1ncccc1C(=O)Nc1nc(-c2cccc(-c3ccc(C(=O)O)cc3)c2)cs1` [Compound 24, 3′-(2-(2-(Methylthio)nicotinamido)thiazol-4-yl)-[1,1′-biphenyl]-4-carboxylic acid]: in series [1], the log reduction at 10 µM stood at 1.49. The compound also returned a CC50 in series [2] of over 40 µM.

For the compound `N#Cc1ccc(-c2cccc(-c3csc(NC(=O)c4cccnc4C(F)(F)F)n3)c2)cc1` [Compound 7, N-(4-(4′-Cyano-[1,1′-biphenyl]-3-yl)thiazol-2-yl)-2-(trifluoromethyl)nicotinamide], the log reduction at 10 µM in series [1] is 5.09. In series [2], the CC50 came to 8.07 µM.

In the case of `CSc1ncccc1C(=O)Nc1nc(-c2cccc(-c3ccncc3)c2)cs1` [Compound 3, 2-(Methylthio)-N-(4-(3-(pyridin-4-yl)phenyl)thiazol-2-yl)nicotinamide], the log reduction at 10 µM in series [1] was under 1. This compound displayed a CC50 in series [2] of over 40 µM.

`CSc1ncccc1C(=O)Nc1nc(-c2cccc(N3CCNCC3)c2)cs1` [Compound 31, 2-(Methylthio)-N-(4-(3-(piperazin-1-yl)phenyl)thiazol-2-yl)nicotinamide]: in series [1], the 90% effect level (EC90) was put at 9.1 µM and the log reduction at 10 µM stood at 8.69. Also, the CC50 in series [2] is over 30 µM.

For `CSc1ncccc1C(=O)Nc1nc(-c2cccc(-c3ccc(C#N)cc3)c2)cs1` [Compound 4, N-(4-(4′-Cyano-[1,1′-biphenyl]-3-yl)thiazol-2-yl)-2-(methylthio)nicotinamide], in series [1], it took 0.31 µM to reach the 90% level (EC90) and the log reduction at 10 µM worked out at 4.73. This compound also gave a CC50 in series [2] of over 40 µM.

Consider `CSc1ncccc1C(=O)Nc1nc(-c2cc(Nc3ccc(C#N)cc3)cc(N3CCOCC3)c2)cs1` [Compound 47, N-(4-(3-((4-cyanophenyl)amino)-5-morpholinophenyl)thiazol-2-yl)-2-(methylthio)nicotinamide], for which, in series [1], the EC90 came to 0.1 µM and the log reduction at 10 µM was found to be 5.14. In addition, the CC50 in series [2] is over 40 µM.

Regarding `N#Cc1ccc(Nc2cccc(-c3csc(NC(=O)C45CC(C(=O)O)(C4)C5)n3)c2)cc1` [Compound 42, 3-((4-(3-((4-Cyanophenyl)amino)phenyl)thiazol-2-yl)carbamoyl)bicyclo[1.1.1]pentane-1-carboxylic Acid], in series [1], the EC90 is over 10 µM and the log reduction at 10 µM was 0. The cytotoxic concentration (CC50) in series [2] was over 40 µM.

As for `CSc1ncccc1C(=O)Nc1nc(-c2cccc(Nc3ccc(C#N)cn3)c2)cs1` [Compound 51, N-(4-(3-((5-cyanopyridin-2-yl)amino)phenyl)thiazol-2-yl)-2-(methylthio)nicotinamide], in series [1], the EC90 came to 4.84 µM and the log reduction at 10 µM turned out to be 2.16. The compound further came in with a CC50 in series [2] of over 40 µM.

As to `CSc1ncccc1C(=O)Nc1nc(-c2cccc(N3CCN(C(C)=O)CC3)c2)cs1` [Compound 32, N-(4-(3-(4-acetylpiperazin-1-yl)phenyl)thiazol-2-yl)-2-(methylthio)nicotinamide], the log reduction at 10 µM in series [1] was under 1. The same compound gave a CC50 in series [2] of over 40 µM.

Regarding `CSc1ncccc1C(=O)Nc1nc(-c2cc(F)cc(-c3ccc(C#N)cc3)c2)cs1` [Compound 19, N-(4-(4′-Cyano-5-fluoro-[1,1′-biphenyl]-3-yl)thiazol-2-yl)-2-(methylthio)nicotinamide], in series [1], the EC90 amounted to 0.19 µM and the log reduction at 10 µM came out at 6.1. The CC50 in series [2] was over 30 µM.

Turning to `CC(C)(C)c1ccc(C(=O)Nc2nc(-c3cccc(N4CCNCC4)c3)cs2)cc1` [Compound 30, 4-(Tert-Butyl)-N-(4-(3-(piperazin-1-yl)phenyl)thiazol-2-yl)benzamide], in series [1], the log reduction at 10 µM came to 5.57. For the same compound, the 50% cytotoxic concentration (CC50) in series [2] stood at 4.1 µM.

On to `CSc1ncccc1C(=O)Nc1nc(-c2cccc(-c3ccc(C#N)cc3)n2)cs1` [Compound 13, N-(4-(6-(4-Cyanophenyl)pyridin-2-yl)thiazol-2-yl)-2-(methylthio)nicotinamide], for which, in series [1], the log reduction at 10 µM was 2.72. For the same compound, the midpoint of cytotoxicity in series [2], the CC50, lay at 16.3 µM.

Consider `COC1CCC(C(=O)Nc2nc(-c3cccc(Nc4ccc(C#N)cc4)c3)cs2)CC1` (stereo not drawn) [Compound 50, N-(4-(3-((4-cyanophenyl)amino)phenyl)thiazol-2-yl)-4-methoxycyclohexane-1-carboxamide], for which, in series [1], it took 0.1 µM to reach the 90% level (EC90) and the log reduction at 10 µM worked out at 4.53. This compound also returned a CC50 in series [2] of 12.4 µM.

For `CSc1ncccc1C(=O)Nc1nc(-c2cccc(-c3ccc(CN)cc3)c2)cs1` [Compound 26, N-(4-(4′-(aminomethyl)-[1,1′-biphenyl]-3-yl)thiazol-2-yl)-2-(methylthio)nicotinamide], in series [1], it took 0.75 µM to reach the 90% level (EC90) and the log reduction at 10 µM came to 8.75. Moreover, the CC50 in series [2] is over 40 µM.

`CSc1ncccc1C(=O)Nc1nc(-c2cccc(-n3ccnc3)c2)cs1` [Compound 29, N-(4-(3-(1H-imidazol-1-yl)phenyl)thiazol-2-yl)-2-(methylthio)nicotinamide]: in series [1], the EC90 came out at 0.27 µM and the log reduction at 10 µM came to 1.39. Also, the CC50 in series [2] was over 40 µM.

As for `CSc1ncccc1C(=O)Nc1nc(-c2cccc(-c3ccc(C#N)cn3)c2)cs1` [Compound 14, N-(4-(3-(5-Cyanopyridin-2-yl)phenyl)thiazol-2-yl)-2-(methylthio)nicotinamide], in series [1], the EC90 was found to be 0.62 µM and the log reduction at 10 µM came to 6. In series [2], this compound yielded a 50% cytotoxic concentration (CC50) of over 40 µM.

As to `COC(=O)C12CC(C(=O)Nc3nc(-c4cccc(Nc5ccc(C#N)cc5)c4)cs3)(C1)C2` [Compound 43, Methyl 3-((4-(3-((4-cyanophenyl)amino)phenyl)thiazol-2-yl)carbamoyl)bicyclo[1.1.1]pentane-1-carboxylate], in series [1], the 90% effect concentration (EC90) was 10.1 µM and the log reduction at 10 µM came to 0.74. Also, the CC50 in series [2] stood at 13 µM.

For the compound `CSc1ncccc1C(=O)Nc1nc(-c2cccc(-c3ccc(F)nc3)c2)cs1` [Compound 16, N-(4-(3-(6-Fluoropyridin-3-yl)phenyl)thiazol-2-yl)-2-(methylthio)nicotinamide], in series [1], the EC90 was 0.33 µM and the log reduction at 10 µM was 6.09. In series [2], this compound displayed a CC50 of over 30 µM.

Turning to `CSc1ncccc1C(=O)Nc1nc(-c2cccc(-c3ccc(C(N)=O)cc3)c2)cs1` [Compound 25, N-(4-(4′-Carbamoyl-[1,1′-biphenyl]-3-yl)thiazol-2-yl)-2-(methylthio)nicotinamide], in series [1], it took 0.21 µM to reach the 90% level (EC90) and the log reduction at 10 µM stood at 2.43. Also, half-maximal cytotoxicity in series [2] (CC50) was put at 17.9 µM.

As for `CSc1ncccc1C(=O)Nc1nc(-c2cccc(Nc3cccc(C#N)c3)c2)cs1` [Compound 38, N-(4-(3-((3-Cyanophenyl)amino)phenyl)thiazol-2-yl)-2-(methylthio)nicotinamide], in series [1], the EC90 was determined as 0.15 µM and the log reduction at 10 µM was found to be 5.72. This compound also had a CC50 in series [2] of over 40 µM.

`CSc1ncccc1C(=O)Nc1nc(-c2cccc(Nc3ccccc3C#N)c2)cs1` [Compound 39, N-(4-(3-((2-Cyanophenyl)amino)phenyl)thiazol-2-yl)-2-(methylthio)nicotinamide]: in series [1], it took 0.5 µM to reach the 90% level (EC90) and the log reduction at 10 µM was determined as 5.23. In series [2], this compound returned a CC50 of over 40 µM.
